Active and inactive are the calls of the source. The calls are words filed in the database; no cut-off is given here.
What was measured:
Mahlavu [1] = test: Cytotoxicity against human Mahlavu cells assessed as cell viability by MTT assay; type: functional, cell-based
[2] = Cytotoxicity against mouse HCA1 cells assessed as cell viability by MTT assay; type: functional, cell-based
Hep 3B2 [3] = test: Cytotoxicity against human Hep3B cells assessed as cell viability by MTT assay; type: functional, cell-based
[4] = Cytotoxicity against human JHH7 cells assessed as cell viability by MTT assay; type: functional, cell-based
HepG2 = test: Cytotoxicity against human HepG2 cells assessed as cell viability by MTT assay; type: functional, cell-based
[5] = Cytotoxicity against mouse FL83B cells assessed as cell viability by MTT assay; type: cell-based
HCA1 [6] = test: Induction of apoptosis in mouse HCA1 cells after 16 hrs using annexin V/PI staining assay; type: functional, cell-based
Mahlavu [7] = test: Induction of apoptosis in human Mahlavu cells after 16 hrs using annexin V/PI staining assay; type: functional, cell-based
HCA1 [8] = test: Downregulation of Akt expression in mouse HCA1 cells by Western blot analysis; type: functional, cell-based
Mahlavu [9] = test: Downregulation of Akt expression in human Mahlavu cells by Western blot analysis; type: functional, cell-based
[10] = target: Serine/threonine-protein kinase AKT (Homo sapiens) (UniProt P31751+Q9Y243+P31749); test: Inhibition of Akt phosphorylation in human Hep3B cells by Western blot analysis; type: cell-based
HCA1 [11] = test: Reduction in Bcl-xL expression in mouse HCA1 cells by Western blot analysis; type: functional, cell-based
Mahlavu [12] = test: Reduction in Bcl-xL expression in human Mahlavu cells by Western blot analysis; type: functional, cell-based
Mahlavu [13] = test: Reduction in p53 expression in human Mahlavu cells by Western blot analysis; type: functional, cell-based
HCA1 [14] = test: Induction of apoptosis in mouse HCA1 cells assessed as increase in cleaved caspase 3 measured after 2 hrs by Western blot analysis; type: functional, cell-based
Mahlavu [15] = test: Induction of apoptosis in human Mahlavu cells assessed as increase in cleaved caspase 3 measured after 2 hrs by Western blot analysis; type: functional, cell-based
HCA1 [16] = test: Inhibition of autophagy in mouse HCA1 cells assessed as increase in LC3-II measured after 2 to 6 hrs by Western blot analysis; type: functional, cell-based; settings: time 2-6 hrs
Mahlavu [17] = test: Inhibition of autophagy in human Mahlavu cells assessed as increase in LC3-II measured after 2 to 6 hrs by Western blot analysis; type: functional, cell-based; settings: time 2-6 hrs
Hep 3B2 [18] = test: Inhibition of autophagy in human Hep3B cells assessed as increase in LC3-II measured after 2 to 6 hrs by Western blot analysis; type: functional, cell-based; settings: time 2-6 hrs
HCA1 [19] = test: Inhibition of autophagy in mouse HCA1 cells assessed as increase in p62 expression measured after 2 to 6 hrs by Western blot analysis; type: functional, cell-based; settings: time 2-6 hrs
Mahlavu [20] = test: Inhibition of autophagy in human Mahlavu cells assessed as increase in p62 expression measured after 2 to 6 hrs by Western blot analysis; type: functional, cell-based; settings: time 2-6 hrs
Hep 3B2 [21] = test: Inhibition of autophagy in human Hep3B cells assessed as increase in p62 expression measured after 2 to 6 hrs by Western blot analysis; type: functional, cell-based; settings: time 2-6 hrs
HCA1 [22] = test: Effect on LC3-I expression in mouse HCA1 cells at 0.5 uM by Western blot analysis; type: functional, cell-based
Mahlavu [23] = test: Effect on LC3-I expression in human Mahlavu cells at 0.5 uM by Western blot analysis; type: functional, cell-based
Hep 3B2 [24] = test: Effect on LC3-I expression in human Hep3B cells at 0.5 uM by Western blot analysis; type: functional, cell-based
HCA1 [25] = test: Inhibition of autophagosome-lysosome fusion in mouse HCA1 cells assessed as number of LC3 puncta at 1 uM for 2 hrs by immunofluorescence assay; type: functional, cell-based
Mahlavu [26] = test: Inhibition of autophagosome-lysosome fusion in human Mahlavu cells assessed as number of LC3 puncta at 1 uM for 2 hrs by immunofluorescence assay; type: functional, cell-based
HCA1 [27] = test: Inhibition of autophagy in mouse HCA1 cells assessed as increase in LC3-II measured at 0.1 to 0.5 uM by Western blot analysis; type: functional, cell-based; settings: dose 0.1-0.5 µM, time 2-6 hrs, TDE = time-dependent effect
Mahlavu [28] = test: Inhibition of autophagy in human Mahlavu cells assessed as increase in LC3-II measured at 0.1 to 0.5 uM by Western blot analysis; type: functional, cell-based; settings: dose 0.1-0.5 µM, time 2-6 hrs, TDE = time-dependent effect
Hep 3B2 [29] = test: Inhibition of autophagy in human Hep3B cells assessed as increase in LC3-II measured at 0.1 to 0.5 uM by Western blot analysis; type: functional, cell-based; settings: dose 0.1-0.5 µM, time 2-6 hrs, TDE = time-dependent effect
HCA1 [30] = test: Inhibition of autophagy in mouse HCA1 cells assessed as increase in p62 expression measured at 0.1 to 0.5 uM by Western blot analysis; type: functional, cell-based; settings: dose 0.1-0.5 µM, time 2-6 hrs, TDE = time-dependent effect
Mahlavu [31] = test: Inhibition of autophagy in human Mahlavu cells assessed as increase in p62 expression measured at 0.1 to 0.5 uM by Western blot analysis; type: functional, cell-based; settings: dose 0.1-0.5 µM, time 2-6 hrs, TDE = time-dependent effect
Hep 3B2 [32] = test: Inhibition of autophagy in human Hep3B cells assessed as increase in p62 expression measured at 0.1 to 0.5 uM by Western blot analysis; type: functional, cell-based; settings: dose 0.1-0.5 µM, time 2-6 hrs, TDE = time-dependent effect

Sequence of Serine/threonine-protein kinase AKT (Homo sapiens) (P31749 whole entry, looked up): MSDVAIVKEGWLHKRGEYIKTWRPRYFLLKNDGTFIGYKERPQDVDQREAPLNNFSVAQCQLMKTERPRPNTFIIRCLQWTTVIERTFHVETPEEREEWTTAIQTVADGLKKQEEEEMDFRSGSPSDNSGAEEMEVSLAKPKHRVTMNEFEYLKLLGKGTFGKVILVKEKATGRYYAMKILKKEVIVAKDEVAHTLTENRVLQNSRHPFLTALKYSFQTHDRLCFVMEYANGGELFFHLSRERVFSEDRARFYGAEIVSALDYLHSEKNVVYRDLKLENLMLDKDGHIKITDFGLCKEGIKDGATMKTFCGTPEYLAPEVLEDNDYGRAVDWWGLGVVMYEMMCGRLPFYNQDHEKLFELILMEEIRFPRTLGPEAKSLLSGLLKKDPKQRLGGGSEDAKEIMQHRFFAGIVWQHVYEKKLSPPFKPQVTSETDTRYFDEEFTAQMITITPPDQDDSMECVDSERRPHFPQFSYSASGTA
Sequence of Serine/threonine-protein kinase AKT (Homo sapiens) (P31751 whole entry, looked up): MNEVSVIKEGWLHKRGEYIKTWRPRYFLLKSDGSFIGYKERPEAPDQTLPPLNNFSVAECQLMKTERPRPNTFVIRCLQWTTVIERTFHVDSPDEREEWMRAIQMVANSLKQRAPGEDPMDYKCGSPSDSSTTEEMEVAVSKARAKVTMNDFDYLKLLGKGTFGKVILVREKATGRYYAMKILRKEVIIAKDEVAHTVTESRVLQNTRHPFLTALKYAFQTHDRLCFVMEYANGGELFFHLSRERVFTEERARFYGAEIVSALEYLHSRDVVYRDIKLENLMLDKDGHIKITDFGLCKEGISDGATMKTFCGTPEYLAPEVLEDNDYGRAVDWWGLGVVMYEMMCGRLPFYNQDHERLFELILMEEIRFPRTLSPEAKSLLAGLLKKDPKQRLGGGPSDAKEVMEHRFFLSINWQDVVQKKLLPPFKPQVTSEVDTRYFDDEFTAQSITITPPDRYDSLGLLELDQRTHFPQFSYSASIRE
Sequence of Serine/threonine-protein kinase AKT (Homo sapiens) (Q9Y243 whole entry, looked up): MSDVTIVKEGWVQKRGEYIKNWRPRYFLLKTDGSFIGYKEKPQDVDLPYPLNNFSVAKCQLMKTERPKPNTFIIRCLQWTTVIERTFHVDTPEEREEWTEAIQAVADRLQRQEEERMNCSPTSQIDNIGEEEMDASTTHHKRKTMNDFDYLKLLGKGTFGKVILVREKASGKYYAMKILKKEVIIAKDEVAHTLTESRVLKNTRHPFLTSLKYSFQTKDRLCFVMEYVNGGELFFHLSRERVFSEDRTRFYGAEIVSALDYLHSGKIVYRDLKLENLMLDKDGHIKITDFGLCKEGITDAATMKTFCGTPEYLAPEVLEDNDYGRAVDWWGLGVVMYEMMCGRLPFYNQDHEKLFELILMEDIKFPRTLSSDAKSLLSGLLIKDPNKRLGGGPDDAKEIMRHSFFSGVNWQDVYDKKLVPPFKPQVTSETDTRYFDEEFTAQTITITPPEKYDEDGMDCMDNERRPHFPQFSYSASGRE

With `C=CC1CN2CCC1C[C@H]2[C@@H](NC(=O)Nc1cc(C)cc(C)c1)c1ccnc2ccc(OC)cc12` (some centres undefined) the IC50 (Mahlavu [1]) was greater than 10 µM, the IC50 [2] was greater than 10 µM and the IC50 (Hep 3B2 [3]) was 5.12 µM. It also gave an IC50 [4] of 7.31 µM, an IC50 (HepG2) of 5.16 µM and an IC50 [5] greater than 10 µM.
Compound `C=CC1CN2CCC1CC2[C@@H](NC(=O)Nc1ccc(C(F)(F)F)cc1)c1ccnc2ccc(OC)cc12` (some centres undefined) has an IC50 (Mahlavu [1]) of 0.6 µM, an IC50 [2] of 0.62 µM and an IC50 (Hep 3B2 [3]) of 0.59 µM. For the same compound, the IC50 [4] was 0.42 µM, the IC50 (HepG2) was 1.08 µM and the IC50 [5] was 0.79 µM.
Compound `C=CC1CN2CCC1C[C@H]2[C@@H](NC(=O)Nc1ccccc1C(F)(F)F)c1ccnc2ccc(OC)cc12` (some centres undefined) has an IC50 (Mahlavu [1]) of 6.51 µM, an IC50 [2] of 5.72 µM and an IC50 (Hep 3B2 [3]) of 3.05 µM. For the same compound, the IC50 [4] was greater than 10 µM, the IC50 (HepG2) was greater than 10 µM and the IC50 [5] was greater than 10 µM.
Work on `CCN(CC)CCCC(C)Nc1ccnc2cc(Cl)ccc12` (centres undefined) [CHLOROQUINE] yielded an IC50 (Mahlavu [1]) greater than 10 µM, an IC50 [2] greater than 10 µM and an IC50 (Hep 3B2 [3]) greater than 10 µM. The IC50 [4] was greater than 10 µM, the IC50 (HepG2) was greater than 10 µM and the IC50 [5] was greater than 10 µM.
For `C=CC1CN2CCC1C[C@H]2[C@@H](NC(=O)Nc1cc(OC)cc(OC)c1)c1ccnc2ccc(OC)cc12` (some centres undefined), the IC50 (Mahlavu [1]) was 3.81 µM, the IC50 [2] was 2.26 µM and the IC50 (Hep 3B2 [3]) was 3.53 µM. The IC50 [4] was 5.87 µM, the IC50 (HepG2) was 5.09 µM and the IC50 [5] was 8.46 µM.
Work on `C=CC1CN2CCC1CC2[C@H](NC(=O)Nc1cc(C(F)(F)F)cc(C(F)(F)F)c1)c1ccnc2ccc(OC)cc12` (some centres undefined) yielded an IC50 (Mahlavu [1]) of 0.62 µM, an IC50 [2] of 0.42 µM and an IC50 (Hep 3B2 [3]) of 0.38 µM. It also gave an IC50 [4] of 0.6 µM, an IC50 (HepG2) of 0.69 µM and an IC50 [5] of 0.92 µM.
For `C=CC1CN2CCC1C[C@H]2[C@@H](NC(=O)Nc1ccc(OC)cc1)c1ccnc2ccc(OC)cc12` (some centres undefined), the IC50 (Mahlavu [1]) was 6.29 µM, the IC50 [2] was 5.85 µM and the IC50 (Hep 3B2 [3]) was 9.92 µM. It also gave an IC50 [4] greater than 10 µM, an IC50 (HepG2) of 9.55 µM and an IC50 [5] greater than 10 µM.
`C=CC1CN2CCC1CC2[C@@H](NC(=O)Nc1ccccc1)c1ccnc2ccc(OC)cc12` (some centres undefined) gave an IC50 (Mahlavu [1]) of 4.02 µM, an IC50 [2] greater than 10 µM and an IC50 (Hep 3B2 [3]) greater than 10 µM. The IC50 [4] was greater than 10 µM, the IC50 (HepG2) was 8.67 µM and the IC50 [5] was greater than 10 µM.
With `C=CC1CN2CCC1CC2[C@@H](NC(=O)Nc1ccc(F)cc1)c1ccnc2ccc(OC)cc12` (some centres undefined) the IC50 (Mahlavu [1]) was 3.65 µM, the IC50 [2] was 2.81 µM and the IC50 (Hep 3B2 [3]) was 2 µM. The IC50 [4] was greater than 10 µM, the IC50 (HepG2) was 5.88 µM and the IC50 [5] was 3.9 µM.
With `C=CC1CN2CCC1C[C@H]2[C@@H](NC(=O)Nc1cccc(C(F)(F)F)c1)c1ccnc2ccc(OC)cc12` (some centres undefined) the IC50 (Mahlavu [1]) was 6.1 µM, the IC50 [2] was 1.48 µM and the IC50 (Hep 3B2 [3]) was 1.62 µM. For the same compound, the IC50 [4] was 6.42 µM, the IC50 (HepG2) was greater than 10 µM and the IC50 [5] was greater than 10 µM.
In the case of `C=CC1CN2CCC1CC2[C@@H](NC(=O)Nc1cc(C(F)(F)F)cc(C(F)(F)F)c1)c1ccnc2ccc(OC)cc12` (some centres undefined), the IC50 (Mahlavu [1]) is reported as 0.13 µM, the IC50 [2] is reported as 0.23 µM and the IC50 (Hep 3B2 [3]) is reported as 0.27 µM. The IC50 [4] was 0.27 µM, the IC50 (HepG2) was 0.69 µM and the IC50 [5] was 0.72 µM. The Activity (HCA1 [6]) was “Dose-dependent effect”, the Activity (Mahlavu [7]) was “Dose-dependent effect” and the Activity (HCA1 [8]) was “Active”. The Activity (Mahlavu [9]) was “Active”, the inhibition [10] was “Active” and the Activity (HCA1 [11]) was “Active”. For the same compound, the Activity (Mahlavu [12]) was “Active”, the Activity (Mahlavu [13]) was “Active” and the Activity (HCA1 [14]) was “Active”. The Activity (Mahlavu [15]) was “Active”, the Activity (HCA1 [16]) was “Dose-dependent effect” and the Activity (Mahlavu [17]) was “Dose-dependent effect”. For the same compound, the Activity (Hep 3B2 [18]) was “Dose-dependent effect”, the Activity (HCA1 [19]) was “Dose-dependent effect” and the Activity (Mahlavu [20]) was “Dose-dependent effect”. For the same compound, the Activity (Hep 3B2 [21]) was “Dose-dependent effect”, the Activity (HCA1 [22]) was “Active” and the Activity (Mahlavu [23]) was “inactive”. The Activity (Hep 3B2 [24]) was “inactive”, the Activity (HCA1 [25]) was “Active” and the Activity (Mahlavu [26]) was “Active”. For the same compound, the Activity (HCA1 [27]) was “Tde”, the Activity (Mahlavu [28]) was “Tde” and the Activity (Hep 3B2 [29]) was “Tde”. For the same compound, the Activity (HCA1 [30]) was “Tde”, the Activity (Mahlavu [31]) was “Tde” and the Activity (Hep 3B2 [32]) was “Tde”.
`C=CC1CN2CCC1CC2[C@@H](NC(=S)Nc1cc(C(F)(F)F)cc(C(F)(F)F)c1)c1ccnc2ccc(OC)cc12` (some centres undefined) showed an IC50 (Mahlavu [1]) of 0.28 µM, an IC50 [2] of 0.37 µM and an IC50 (Hep 3B2 [3]) of 0.29 µM. It also gave an IC50 [4] of 0.34 µM, an IC50 (HepG2) of 0.77 µM and an IC50 [5] of 0.78 µM.

Source: ChEMBL document CHEMBL5053516, “Cinchona Alkaloid-Inspired Urea-Containing Autophagy Inhibitor Shows Single-Agent Anticancer Efficacy” (J Med Chem, 2021)
